Reference: paper PMC12707362, “Targeting Aurora Kinases as Essential Cell‐Cycle Regulators to Deliver Multi‐Stage Antimalarials Against Plasmodium Falciparum” (Angewandte Chemie (International Ed. in English), 2025)
Structures can show the parent of a compound that is named as a salt. Where two headings read alike, the source gives them in different places.

Legend:
[1] = test system: P. falciparum drug-sensitive NF54 (PfNF54) asexual intra-erythrocytic parasites; experiment: SYBR Green I proliferation assay, PfNF54 asexual blood stages; assay type: cell-based, Plasmodium falciparum; details: read-out: Pf NF54 ABS IC50
Source text: Figure 1 Activity profile of Aur class anticancer inhibitors across the life cycle of Plasmodium falciparum parasites. a) Activity (IC50) of inhibitors (grouped based on specificity against human Aur) against P.falciparum drug‐sensitive (PfNF54) asexual intra‐erythrocytic parasites as measured with SYBR Green I fluorescence as an indicator of viability and proliferation. […] ABS, asexual blood stages of the parasite; HsAur, human Aur.
P. falciparum drug sensitive NF54 (PfNF54) and drug-resistant Dd2 (PfDd2, chloroquine, pyrimethamine and mefloquine resistant) strains were cultured in vitro in human O^+/A^+ erythrocytes (5% hematocrit) in complete medium at 2–5% parasitemia, 37 °C, shaking at 60 rpm under hypoxic conditions (90% N2, 5% O2 and 5% CO2). […] Gametocytogenesis was followed with daily media changes (including glucose) and ABS parasites removed with 50 mM N-acetylglucosamine (day 1–4 for stage II/III; days 3–7 for stage IV/V).
All inhibitors were dissolved in dimethyl sulfoxide (DMSO). […] Ring-stage ABS parasites (1% parasitemia, 1% hematocrit) were treated with compounds for 96 h at 37 °C with chloroquine disulphate (0.5 μM) as positive drug control. […] Luciferase activity was determined using a non-lysing D-luciferin substrate (1 mM in 0.1 M citrate buffer, pH 5.5, 100 μL) and bioluminescence was detected with a GloMax® - Multi Detection System with Instinct® software.

[2] = Cytotoxicity counter-screening (MTT), CHO; details: Chinese hamster, CHO cells
Procedure: (§1) HepG2 and CHO cells were maintained at 37 °C, under a humidified atmosphere of 5% CO2, in DMEM high glucose media (Gibco) supplemented with 10% heat-inactivated FBS and 1% (v/v) Penicillin-Streptomycin antibiotics. […] The supernatant was discarded, and the cell pellet was resuspended in 1 mL DMEM media for cell counting by Trypan Blue. To determine the toxicity, cells were resuspended and seeded at a concentration of 1x10^4 cells/well in a 96-well plate and incubated for 24 h^[9,10]. Cells were treated in duplicate with a 10-fold serial dilution starting at 100 ug/mL of inhibitor in new media. After 48 h incubation, the viable cells were measured using the MTT tetrazolium reduction assay, where sterile 25 µL of a 5 mg/mL MTT was added to each well and incubated for 4 h before the […] formazan crystals were dissolved with 100 µL DMSO (Merck) per well. The absorbance, a measure of intracellular reduction of MTT, was measured at 540 nm (Multiskan GO). Emetine (50 µM) was included as a positive drug control, and the background was subtracted from all data before being normalised to the untreated^[9,10].

[3] = test system: Chinese Hamster Ovary (CHO) cells; experiment: Cytotoxicity counter-screening (MTT), CHO; details: CHO CC50/PfNF54 IC50
Procedure: as §1

[4] = test system: immature (stage II/III) gametocytes, P. falciparum 3D7elo1-pfs16-CBG99; experiment: Luciferase reporter assay, immature gametocytes; assay type: cell-based, Plasmodium falciparum; details: 48 h; for inhibition at 5 µM: Plasmodium falciparum, read-out: Pf Early stage gametocyte %inhibition @ 5 µM
Procedure: (§2) P. falciparum drug sensitive NF54 (PfNF54) and drug-resistant Dd2 (PfDd2, chloroquine, pyrimethamine and mefloquine resistant) strains were cultured in vitro in human O^+/A^+ erythrocytes (5% hematocrit) in complete medium at 2–5% parasitemia, 37 °C, shaking at 60 rpm under hypoxic conditions (90% N2, 5% O2 and 5% CO2). Immature and mature gametocytes were produced from P. falciparum 3D7elo1-pfs16-CBG99 (kind gift from Pietro Alano, ISS, Italy) ^[1] as described^[2,3] by simultaneously applying nutrient starvation and decreasing hematocrit to induce >97% ring-stage ABS parasites (0.5% parasitemia, 6% hematocrit). Gametocytogenesis was followed with daily media changes (including glucose) and ABS parasites removed with 50 mM N-acetylglucosamine (day 1–4 for stage II/III; days 3–7 for stage IV/V).
(§3) All inhibitors were dissolved in dimethyl sulfoxide (DMSO). Antiplasmodium activity of selected anti-cancer inhibitors was determined on P. falciparum NF54 and Dd2 strains, measuring SYBR Green I fluorescence (485 nm excitation, 538 nm emission) as an indicator of proliferation^[4]. Ring-stage ABS parasites (1% parasitemia, 1% hematocrit) were treated with compounds for 96 h at 37 °C with chloroquine disulphate (0.5 μM) as positive drug control. The activity of the inhibitors was tested against immature (>95% stage II/III) and late-stage (>90% stage IV/V) gametocytes using a luciferase reporter assay on 3D7elo1-pfs16-CBG99 ^[1]. […] Luciferase activity was determined using a non-lysing D-luciferin substrate (1 mM in 0.1 M citrate buffer, pH 5.5, 100 μL) and bioluminescence was detected with a GloMax® - Multi Detection System with Instinct® software.

[5] = test system: P. berghei liver schizonts in HepG2-A16-CD81EGFP cells; experiment: P. berghei (PbLuc) liver stage assay; assay type: cell-based; details: Plasmodium berghei; 48 h, PbLuc; read-out: Pb liver stage IC50
Source text: (§4) (B) Antiplasmodial activity of nine anticancer aurora kinase inhibitors (selected based on their PfNF54 ABS activity) against P. falciparum multidrug-resistant ABS parasites (PfDd2 and PfK1). (C) Kinobead competitive inhibition data.
Plasmodium berghei (Pb) sporozoites were obtained by dissecting the salivary glands of infected Anopheles stephensi mosquitoes. These were provided by The SporoCore, at the University of Georgia, GA, USA (SporoCore.uga.edu). The parasites utilised a GFP-Lucama1-eef1 reporter line^[5]. These engineered parasites, termed Pb-Luc, were used to infect HepG2-A16-CD81EGFP cells. HepG2-A16-CD81EGFP cells stably transformed to express a GFP-CD81 fusion protein^[6] were cultured at 37 °C in 5% CO2 in DMEM (Invitrogen, Carlsbad, USA) supplemented with 10% FBS (Corning, NY, USA), 1X Pen/Strep/Glu (Thermo Fisher Scientific, USA). Compounds were prepared as 10 mM solutions in DMSO, and 10 nL of each (resulting in a final DMSO concentration of 0.1% per well) was transferred into assay plates using an ECHO 650 (Beckman). Concentrations ranged from 10 µM to 0.5 nM. Atovaquone (0.1 µM) served as a positive control, while 0.1% DMSO was used as a negative control. Liver stage (PbLuc) screening has been previously described^[7]. Human hepatic cells (3 × 10^3; HepG2-A16-CD81-EGFP) suspended in 5 µL of DMEM medium ([…], supplemented with 5% FBS, 5× Pen/Strep/Glu) were seeded in 1536-well plates (Greiner BioOne) using the MultiFlo FX (Agilent) 20 h before infection. PbLuc sporozoites, isolated from the salivary glands of A. stephensi mosquitoes, were filtered twice through a 20 µm nylon pore cell strainer. The sporozoites were resuspended in screening media, counted with a hemocytometer, and diluted to a final concentration of 200 sporozoites per µL. Each well received 1,000 sporozoites in 5 µL, dispensed via the GNF Dispenser II (GNF Systems). […] Luminescence was measured immediately with the Pherastar FSX reader (BMG Labtech). Luminescence values were normalized using the positive and negative controls. EC50 values were calculated with CDD Vault (Burlingame, CA). […]

[6] = test system: multidrug-resistant PfDd2 ABS parasites; experiment: SYBR Green I proliferation assay, PfDd2 asexual blood stages; assay type: cell-based; details: Plasmodium falciparum, DD2, read-out: Pf Dd2 ABS IC50
Procedure: as §4, §2, §3

[7] = test system: late-stage (stage IV/V) gametocytes, P. falciparum 3D7elo1-pfs16-CBG99; experiment: Luciferase reporter assay, late-stage gametocytes; assay type: cell-based; details: Plasmodium falciparum, 48 h, read-out: Pf Late stage gametocyte %inhibition @ 5 µM
Procedure: as §2, §3

[8] = Cytotoxicity counter-screening (MTT), HepG2; details: human, HepG2 cells, HepG2 CC50, 48 h, MTT
Procedure: as §1

[9] = test system: hepatocellular carcinoma (HepG2) cells; experiment: Cytotoxicity counter-screening (MTT), HepG2; details: HepG2 CC50/PfNF54 IC50
Procedure: as §1

[10] = test system: HepG2 and CHO cell lines versus PfNF54; experiment: Selectivity of parasite versus mammalian cell lines; assay type: cell-based; details: mammalian cell line (CHO/HepG2) CC50 versus PfNF54 IC50; cell line not specified
Procedure: HepG2 and CHO cells were maintained at 37 °C, under a humidified atmosphere of 5% CO2, in DMEM high glucose media (Gibco) supplemented with 10% heat-inactivated FBS and 1% (v/v) Penicillin-Streptomycin antibiotics. […] The supernatant was discarded, and the cell pellet was resuspended in 1 mL DMEM media for cell counting by Trypan Blue. To determine the toxicity, cells were resuspended and seeded at a concentration of 1x10^4 cells/well in a 96-well plate and incubated for 24 h^[9,10]. Cells were treated in duplicate with a 10-fold serial dilution starting at 100 ug/mL of inhibitor in new media. After 48 h incubation, the viable cells were measured using the MTT tetrazolium reduction assay, where sterile 25 µL of a 5 mg/mL MTT was added to each well and incubated for 4 h before the water-soluble formazan crystals were dissolved with 100 µL DMSO (Merck) per well. The absorbance, a measure of intracellular reduction of MTT, was measured at 540 nm (Multiskan GO). Emetine (50 µM) was included as a positive drug control, and the background was subtracted from all data before being normalised to the untreated^[9,10].

[11] = Plasmodium falciparum, NF54, 96 h, ring-stage ABS, 96 h, SYBR Green I
[12] = ring-stage ABS, 96 h, SYBR Green I

## Cc1csc(-c2nnc(Nc3ccc(Oc4ncccc4-c4ccnc(N)n4)cc3)c3ccccc23)c1 [AMG 900]
[1]; [11]
  IC50: ≥ 5000 nM

## COc1cc2ncnc(Nc3ccc(NC(=O)c4ccccc4)cc3)c2cc1OC [Aki II, Aurora Kinase Inhibitor II]
[1]; [12]
  IC50: 2150 nM

## COc1cc(Nc2ncc3c(n2)-c2ccc(Cl)cc2C(c2c(F)cccc2OC)=NC3)ccc1C(=O)O [Alisertib, Alisertib (MLN8237)]
[1]; [11]
  IC50: ≥ 5000 nM

## CN(C)c1ccc(-c2nc3ncc(Cl)c(N4CCN(CC(=O)Nc5nccs5)CC4)c3[nH]2)cc1 [CCT-202, CCT-129202]
[1]; [12]
  IC50: 2410 nM

## Cc1cc(CN2CCN(c3c(Br)cnc4nc(-c5ccc(N6CCN(C)CC6)cc5)[nH]c34)CC2)no1 [CCT-690, CCT-137690]
[1]; [12]
  IC50: 1660 nM

## Cc1nn(C)cc1-c1nc2c(N3CCN(Cc4ccc(Cl)cc4)CC3)c(Cl)cnc2[nH]1 [CCT-736, CCT-241736]
[1]; [11]
  IC50: 3240 nM

## Cc1nc(N)sc1-c1ccnc(Nc2ccc(N3CCOCC3)cc2)n1 [CYC-116]
[1]; [11]
  IC50: 3090 nM

## CO[C@@H](C(=O)N1Cc2n[nH]c(NC(=O)c3ccc(N4CCN(C)CC4)cc3)c2C1)c1ccccc1 [Danusertib]
[1]; [11]
  IC50: 1410 nM
[2]
  CC50 at 48 h: 33.2 µM
[3]
  Selectivity index (SI) CHO: 23.50
[4]
  inhibition at 5 µM: 9.5%
[5]
  IC50: 6.22 µM
[6]
  IC50: 1300 nM
[7]
  inhibition at 5 µM: 2.6%
[8]
  CC50 at 48 h: 35.1 µM
[9]
  Selectivity index (SI) HepG2: 24.8

## CCn1cc(-c2ccnc3[nH]c(-c4cccc(CN(C)C)c4)cc23)c(-c2ccc(NC(=O)N(C)C)cc2)n1 [GSK-916, GSK-1070916]
[1]; [11]
  IC50: 1180 nM
[2]
  CC50 at 48 h: 5.3 µM
[3]
  Selectivity index (SI) CHO: 4.47
[4]
  Pf Early stage gametocyte %inhibition @ 5 µM: 67,1 ± 7,0%
  inhibition at 5 µM: ~70%
[10]
  selectivity index (SI) towards the parasite: < 10
[6]
  IC50: 404 nM
[7]
  inhibition at 5 µM: 31.5%
[8]
  CC50 at 48 h: 13.1 µM
[9]
  Selectivity index (SI) HepG2: 11.03

## Nc1nc(Nc2ccc(S(N)(=O)=O)cc2)nn1C(=O)c1c(F)cccc1F [JNJ, JNJ-7706621]
[1]; [11]
  IC50: 3310 ± 813 nM

## O=C(O)[C@]1(Cc2cccc(Nc3nccs3)n2)CC[C@@H](Oc2cccc(Cl)c2F)CC1 [MK-5108]
[1]; Plasmodium falciparum, NF54, 96 h
  IC50: ≥ 5000 nM

## O=C(O)c1ccc(Nc2ncc3c(n2)-c2ccc(Cl)cc2C(c2c(F)cccc2F)=NC3)cc1 [MLN8054]
[1]; [11]
  IC50: ≥ 5000 nM

## CC(=O)NCC(=O)N1[C@@H]2CC[C@H]1c1ccc(Nc3ncc(C(F)(F)F)c(NC4CCC4)n3)cc12 [PF-35, PF-03814735]
[1]; [12]
  IC50: 2120 ± 1560 nM

## Cc1cc(Nc2nn(-c3ccccc3)c(=O)c3ccccc23)n[nH]1 [PH-p, Phthalazinone pyrazole]
[1]; [12]
  IC50: 2720 nM

## CCc1cccc(CC)c1NC(=O)N1Cc2n[nH]c(NC(=O)c3ccc(N4CCN(C)CC4)cc3)c2C1 [PHA-32, PHA-680632]
[1]; [11]
  IC50: 3130 nM

## O=C(Nc1cccc(Cl)c1)Nc1ncc(CCNc2ncnc3ccsc23)s1 [SNS-314, SNS-314 Mesylate]
[1]; [11]
  IC50: 1440 nM
